Several values for one entry are separate records, joined by “and”; a condition that tells them apart may be missing. Equal values may be shown once.
Columns and labels:
[1] = test system: S. griseolus ATCC11796; assay: Metabolism of 10015 analogs to 10014 (Example 17); format: in vitro ADME, Streptomyces griseolus
Method: Cultures of S. griseolus ATCC11796 were cultivated in sporulation-broth (50ml) at 30° C. with shaking for 17 hours. Each culture was then resuspended in 25 ml fresh sporulation broth, 3.0 mg sulfonylurea was added, and the culture reincubated for 4 days. Aliquots of the medium were then analyzed by HPLC. Formation of 10014 was measured based on similarity of retention time and UV spectrum of the test metabolite to that formed by metabolism of 10015.

[2] = test system: Tobacco plants (Nicotiana tabactum cv. Wisconsin 38); assay: Foliar spray of 10015 on P450SU1 transformed tobacco plants (Example 21); format: in vivo, Nicotiana tabacum; conditions: individual plants
From the text: Tobacco plants (Nicotiana tabactum cv. Wisconsin 38) transformed with plasmids pAGS112, pSU18, pSSU-SU111, pCab-SU121 or pCab-SU131 (singly) and accumulating the P450SU1 protein were identified by Western blot analysis. Seed arising from the self pollination of individual primary transformants designated AGS112, SU18.8, SU18.14, SSU-SU111.5, […], and Cab-SU131.5 gave rise to the plants described in this Example. The progeny of primary AGS112 and Cab-SU121.5 transformants segregated for single copy kanamycin resistance. In contrast, the progeny of the plants transformed with plasmids containing P450SU1 (other than Cab-SU121.5) segregated for multicopy kanamycin resistance. Thus, most plants containing the gene encoding P450SU1 and sprayed with 10015 in this Example likely contained at least one, and in many cases multiple, copies of P450SU1, while very few individuals likely carried no copies of the gene encoding P450SU1.
Seed from transformed and nontransformed tobacco plants was germinated in a commercial potting mix Metro-Mix® 350 for 25 days. Individual plants were then transferred to 4 inch×4 inch pots containing Metro Mix® 350 and were allowed to grow in the greenhouse for an additional 22 days at which time most plants contained 4-5 fully expanded leaves. A developmentally uniform population of plants was selected from among these transplants and the individual plants were then sprayed with a carrier solution of AGWT (90.2% Acetone: 4.8% Glycerol: 4.8% Water: 0.24% Tween 20 by volume) containing sulfonylurea compound 10015 at concentrations of 1,4, or 16 grams/hectare (g/ha). The sprayed plants were returned to the greenhouse and rated for injury 22 days later.

[3] = test system: transgenic Nicotiana tabacum cv. Xanthi plants; assay: In vitro pollen germination after spraying 10015 on tobacco with anther-specific P450SU1 (Example 28); format: in vivo
Method: Application of compound 10015 was as follows. The tapetal cells of the anther surround the developing pollen and are instrumental in supporting the development of mature pollen. Thus production of a toxin in the tapetal cells was expected to disrupt the development of normal mature pollen. The nontoxic compound 10015 was sprayed onto flowering transgenic plants that had anther-specific expression of P450SU1 mRNA. […] The 10015 was first dissolved in up to 0.8 ml of 0.01 N ammonium hydroxide and then diluted into AGWT (90.2% Acetone:4.8% Glycerol:4.8% Water:0.24% Tween 20 by volume). Little effect was seen when rates of less than 32 g/ha were applied. At 32 g/ha and above, effects were seen on the ability of pollen to germinate in vitro. Newly opened buds were collected at time intervals between four and 23 days after spraying. The anthers were removed and pollen was brushed into Brewbaker and Kwak medium (15% sucrose, 200 ppm calcium nitrate, 100 ppm boric acid). Growth of tubes from the pollen, indicating germination, was assessed after four hours of incubation by microscopic observation.

[4] = test system: S. lividans pCAO200SU2-FeS-A#11; assay: Sulfonylurea metabolism by washed cell suspension (Examples 11-12); format: in vitro ADME, Streptomyces lividans; conditions: for concentration in supernatant: substrate 10010
[5] = test system: S. lividans C37; assay: Percent conversion of herbicides by cultures (Example 16); format: in vitro ADME, Streptomyces lividans; conditions: 3.0 mg herbicide in 25 ml broth; 24 hours
Method: (§1) Separate cultures (50 ml) inoculated with S. lividans C37, S. lividans transformed with pCAO200SU1-FeS-B#9, S. griseolus ATCC11796, S. griseolus PH2003 transformed with pIJ425, or S. ariseolus PH2003 transformed with pCS325 were cultured in sporulation broth for 18 hours at 30° C. with shaking. Each culture was then resuspended in 25 ml fresh sporulation broth and 3.0 mg herbicide added. In the case of cultures of S. griseolus ATCC11796, a second culture containing herbicide and 3.0 mg 10001 was also prepared. Each culture was reincubated for 24 hours, then an aliquot of the medium was withdrawn and analyzed by HPLC. The percent conversion of herbicide was determined.

[6] = test system: S. lividans pCAO200SU1-FeS-B#9; assay: as above; format: in vitro ADME, Streptomyces lividans; conditions: 3.0 mg herbicide in 25 ml broth; 24 hours
Method: as §1

[7] = test system: S. griseolus PH2003 pIJ425; assay: as above; format: in vitro ADME, Streptomyces griseolus; conditions: 3.0 mg herbicide in 25 ml broth; 24 hours
Method: as §1

[8] = test system: S. griseolus PH2003 pCS325; assay: as above; format: in vitro ADME, Streptomyces griseolus; conditions: 3.0 mg herbicide in 25 ml broth; 24 hours
Method: as §1

[9] = test system: S. griseolus ATCC 11796; assay: as above; format: in vitro ADME, Streptomyces griseolus; conditions: 3.0 mg herbicide in 25 ml broth; 24 hours
Method: as §1

[10] = test system: S. griseolus ATCC 11796, 10001 added; assay: as above; format: in vitro ADME, Streptomyces griseolus; conditions: 3.0 mg herbicide and 3.0 mg 10001 in 25 ml broth; 24 hours
Method: as §1

SMILES: COc1cc(OC)nc(NC(=O)NS(=O)(=O)c2cccc3c2S(=O)(=O)N(C(C)C)C3)n1 [compound 10015]
- metabolism by P450SU1 to phytotoxic 10014 [1]: metabolized
- % Damage ([2]; 1 g/ha, AGS 112, 22 days): 0% and 10%
- % Damage ([2]; 1 g/ha, Cab-SU111.8, 22 days): 90% and 95%
- % Damage ([2]; 1 g/ha, Cab-SU121.5, 22 days): 85% and 95% and 20%
- % Damage ([2]; 1 g/ha, Cab-SU131.5, 22 days): 50% and 95% and 90%
- % Damage ([2]; 1 g/ha, SSU-SU111.5, 22 days): 95%
- % Damage ([2]; 1 g/ha, SU18.14, 22 days): 40%
- % Damage ([2]; 1 g/ha, SU18.8, 22 days): 10%
- % Damage ([2]; 1 g/ha, W38, 22 days after spraying): 0% and 10%
- % Damage ([2]; 4 g/ha, AGS 112, 22 days): 0% and 40%
- % Damage ([2]; 4 g/ha, Cab-SU111.8, 22 days): 0% and 99%
- % Damage ([2]; 4 g/ha, Cab-SU121.5, 22 days): 90% and 100% and 95%
- % Damage ([2]; 4 g/ha, Cab-SU131.5, 22 days): 40% and 100%
- % Damage ([2]; 4 g/ha, SSU-SU111.5, 22 days): 100%
- % Damage ([2]; 4 g/ha, SU18.14, 22 days): 70%
- % Damage ([2]; 4 g/ha, SU18.8, 22 days): 60%
- % Damage ([2]; 4 g/ha, W38, 22 days): 0% and 10% and 20% and 30%
- pollen germination in vitro ([3]; A-T-SU1 plants 41A and 56 A, 32 g/ha, 7 to 11 days after application): 0%
- pollen germination in vitro ([3]; A-T-SU1 plants 41A and 56 A, 32 g/ha, through 18 days on one plant, 13 days on the other): less than 0.1%
- pollen germination in vitro ([3]; plant 28A, 100 g/ha, 21 days): less than 0.1%
- pollen germination in vitro ([3]; plant 38A, 100 g/ha, 14 days, varying between buds): 1-25%

SMILES: COC(=O)c1ccccc1S(=O)(=O)NC(=O)Nc1nc(C)cc(C)n1 [compound 10010, N-[(4,6-dimethylpyrimidin-2-yl)aminocarbonyl]-2-methoxycarbonylbenzenesulfonamide]
- concentration in supernatant ([4]; 2 h): 90 µM
- concentration in supernatant ([4]; 4 h): 84 µM
- concentration in supernatant ([4]; 6 h): 72 µM
- metabolism compared with uninduced S. griseolus PH2001 ([4]; summary of Example 12): more readily than uninduced S. griseolus PH2001

SMILES: CCOC(=O)c1ccccc1S(=O)(=O)NC(=O)Nc1nc(Cl)cc(OC)n1 [compound 10001, N-[(4-chloro-6-methoxy-pyrimidin-2-yl)aminocarbonyl]-2-ethoxycarbonylbenzenesulfonamide]
- Percent Conversion [5]: 0%
- Percent Conversion [6]: 56%
- Percent Conversion [7]: 100%
- Percent Conversion [8]: 100%
- Percent Conversion [9]: 100%
- Percent Conversion [10]: 100%
